Among the data in PubChem BioAssay AID330 (DTP/NCI, 2004) are T/C values, retold here.

Structures are written as SMILES. Several values for one entry are separate records, joined by “and”; a condition that tells them apart may be missing. Identical values can stand only once. Inconclusive results and toxic doses are left out. Peptide text beside a SMILES is read from it. * marks the point of attachment. Trt = c1ccc(C(c2ccccc2)(c2ccccc2)*)cc1; Cbz = O=C(OCc1ccccc1)*

This experiment deals with P388 leukemia ip, CD2F1 mice, survival T/C. Briefly: NCI In Vivo Anticancer Drug Screen. Data for tumor model P388 Leukemia (intraperitoneal) in CD2F1 (CDF1) mice. The note with it: endpoint: median survival time, higher = longer survival. An outline of the steps:
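Mice carrying the transplanted tumor received test compound or vehicle. Survival was recorded in each group, and the value is the treated-group measurement divided by that of the vehicle-treated control group.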

[1] abbreviates: dose: 50.0 mg/kg/injection, schedule: Q01DX009 (ip), vehicle: Klucel (hydroxypropylcellulose) (HPC).
[2] abbreviates: dose: 100.0 mg/kg/injection, schedule: Q01DX009 (ip), vehicle: Klucel (hydroxypropylcellulose) (HPC).
Where [3] appears, read: dose: 200.0 mg/kg/injection, schedule: Q01DX009 (ip), vehicle: Klucel (hydroxypropylcellulose) (HPC).
Setting [4] is: dose: 50.0 mg/kg/injection, schedule: Q01DX005 (ip), vehicle: saline with Tween-80.
Setting [5] is: dose: 100.0 mg/kg/injection, schedule: Q01DX005 (ip), vehicle: saline with Tween-80.
The mark [6] stands for this setting: dose: 200.0 mg/kg/injection, schedule: Q01DX005 (ip), vehicle: saline with Tween-80.
[7] abbreviates: dose: 7.5 mg/kg/injection, schedule: Q01DX005 (ip), vehicle: saline with Tween-80.
The mark [8] stands for this setting: dose: 15.0 mg/kg/injection, schedule: Q01DX005 (ip), vehicle: saline with Tween-80.
Setting [9] is: dose: 12.5 mg/kg/injection, schedule: Q01DX009 (ip), vehicle: distilled water + Tween-80.
Where [10] appears, read: dose: 25.0 mg/kg/injection, schedule: Q01DX009 (ip), vehicle: distilled water + Tween-80.
The mark [11] stands for this setting: dose: 50.0 mg/kg/injection, schedule: Q01DX009 (ip), vehicle: distilled water + Tween-80.

Take `CC1CN(C(C)(C)C)CO1` (stereo not drawn): the T/C is, setting by setting: (dose: 12.5 mg/kg/injection, schedule: Q01DX005 (ip), vehicle: saline) 112 % of control and 88 % of control; (dose: 25.0 mg/kg/injection, schedule: Q01DX005 (ip), vehicle: saline) 107 % of control; (dose: 50.0 mg/kg/injection, schedule: Q01DX005 (ip), vehicle: saline) 114 % of control and 117 % of control and 119 % of control; (dose: 100.0 mg/kg/injection, schedule: Q01DX005 (ip), vehicle: saline) 119 % of control and 120 % of control; (dose: 200.0 mg/kg/injection, schedule: Q01DX005 (ip), vehicle: saline) 107 % of control.
With `CCOC(=O)c1ccc(NC(=O)Nc2cc(Cl)ncn2)cc1`, the T/C runs as follows: under setting [1], 100 % of control; under setting [2], 99 % of control; under setting [3], 91 % of control.
Turning to `C/C=C/N=NNc1ccc(OC)cc1`, the T/C reads like this: (dose: 100.0 mg/kg/injection, schedule: Q04DX003 (ip), vehicle: saline + Tween-80 + alcohol) 105 % of control; (dose: 200.0 mg/kg/injection, schedule: Q04DX003 (ip), vehicle: saline + Tween-80 + alcohol) 99 % of control.
For the compound `C=C1C(=O)OC2/C=C(/CO)CC/C=C(/C=O)CC(O)C12` (stereo not drawn), the T/C is 101 % of control (dose: 1.89 mg/kg/injection, schedule: Q01DX005 (ip), vehicle: saline + Tween-80 + alcohol); 100 % of control (dose: 3.75 mg/kg/injection, schedule: Q01DX005 (ip), vehicle: saline + Tween-80 + alcohol); 101 % of control (dose: 7.5 mg/kg/injection, schedule: Q01DX005 (ip), vehicle: saline + Tween-80 + alcohol); 99 % of control (dose: 15.0 mg/kg/injection, schedule: Q01DX005 (ip), vehicle: saline + Tween-80 + alcohol).
Regarding `COc1cc(C2c3cc4c(cc3C3OC(=O)C2C3CO)OCO4)cc(OC)c1OC` (stereo not drawn), the T/C is 117 % of control (dose: 0.12 mg/kg/injection, schedule: Q01DX009 (ip), vehicle: Klucel (hydroxypropylcellulose) (HPC)); 115 % of control (dose: 0.25 mg/kg/injection, schedule: Q01DX009 (ip), vehicle: Klucel (hydroxypropylcellulose) (HPC)); 120 % of control (dose: 0.5 mg/kg/injection, schedule: Q01DX009 (ip), vehicle: Klucel (hydroxypropylcellulose) (HPC)); 118 % of control (dose: 3.12 mg/kg/injection, schedule: Q01DX009 (ip), vehicle: Klucel (hydroxypropylcellulose) (HPC)); 118 % of control (dose: 6.25 mg/kg/injection, schedule: Q01DX009 (ip), vehicle: Klucel (hydroxypropylcellulose) (HPC)).
With `COC(=O)C[Si](C)(C)C`, the T/C is, setting by setting: under setting [4], 105 % of control; under setting [5], 98 % of control; under setting [6], 95 % of control.
For `Cc1cc(N/N=C/c2c(C)n(C)n(-c3ccccc3)c2=O)c2cc3c(cc2n1)OCO3`, the T/C reads like this: (dose: 6.25 mg/kg/injection, schedule: Q01DX005 (ip), vehicle: Klucel (hydroxypropylcellulose) (HPC)) 103 % of control; (dose: 12.5 mg/kg/injection, schedule: Q01DX005 (ip), vehicle: Klucel (hydroxypropylcellulose) (HPC)) 113 % of control; (dose: 25.0 mg/kg/injection, schedule: Q01DX005 (ip), vehicle: Klucel (hydroxypropylcellulose) (HPC)) 108 % of control.
On to `S=C(NC1CCCCC1)NC1CCCCC1`, for which the T/C (dose: 100.0 mg/kg/injection, schedule: Q01DX009 (ip), vehicle: saline with Tween-80) is 90 % of control; the T/C (dose: 100.0 mg/kg/injection, schedule: Q04DX003 (ip), vehicle: saline with Tween-80) is 95 % of control; the T/C (dose: 200.0 mg/kg/injection, schedule: Q01DX009 (ip), vehicle: saline with Tween-80) was 90 % of control; the T/C (dose: 200.0 mg/kg/injection, schedule: Q04DX003 (ip), vehicle: saline with Tween-80) was 90 % of control; the T/C (dose: 400.0 mg/kg/injection, schedule: Q01DX009 (ip), vehicle: saline with Tween-80) was 86 % of control; the T/C (dose: 400.0 mg/kg/injection, schedule: Q04DX003 (ip), vehicle: saline with Tween-80) is 90 % of control.
As for `COc1cccc2c1C(=O)c1c(O)c3c(c(O)c1C2=O)[C@@H](OC)[C@@](O)(C(=O)CO)C[C@@H]3OC1CC(N)C(O)C(C)O1` (stereo partly drawn), the T/C (dose: 3.13 mg/kg/injection, schedule: Q04DX003 (ip), vehicle: water) was 108 % of control and 123 % of control; the T/C (dose: 12.5 mg/kg/injection, schedule: Q04DX003 (ip), vehicle: water) is 115 % of control; the T/C (dose: 25.0 mg/kg/injection, schedule: Q04DX003 (ip), vehicle: water) is 106 % of control and 115 % of control; the T/C (dose: 50.0 mg/kg/injection, schedule: Q04DX003 (ip), vehicle: water) is 104 % of control.
`O=C([Se]c1[se]c(=[Se])[se]c1[Se]C(=O)c1ccccc1)c1ccccc1`: the T/C under setting [7] is 97 % of control; the T/C under setting [8] is 105 % of control; the T/C (dose: 30.0 mg/kg/injection, schedule: Q01DX005 (ip), vehicle: saline with Tween-80) is 105 % of control; the T/C under setting [4] was 88 % of control.
Regarding `CCOC(=O)Nc1cc(=O)c([N+](=O)[O-])c(N)[nH]1`, the T/C is, setting by setting: (dose: 60.0 mg/kg/injection, schedule: Q01DX005 (ip), vehicle: saline + Tween-80 + alcohol) 99 % of control; (dose: 120.0 mg/kg/injection, schedule: Q01DX005 (ip), vehicle: saline + Tween-80 + alcohol) 101 % of control; (dose: 240.0 mg/kg/injection, schedule: Q01DX005 (ip), vehicle: saline + Tween-80 + alcohol) 100 % of control.
As to `COC(=O)C(CSC(c1ccccc1)(c1ccccc1)c1ccccc1)NC(=O)C(CC(N)=O)NC(=O)OCc1ccccc1` (stereo not drawn) (Cbz-Asn-Cys(Trt)-OMe; configuration not given here), the T/C is, setting by setting: under setting [9], 92 % of control; under setting [10], 97 % of control; under setting [11], 122 % of control and 94 % of control; (dose: 200.0 mg/kg/injection, schedule: Q01DX009 (ip), vehicle: distilled water + Tween-80) 163 % of control.
`O=C1CSC(c2cccc(F)c2)N1CCN1C(=O)CSC1c1cccc(F)c1` (stereo not drawn): the T/C under setting [4] is 95 % of control, the T/C under setting [5] is 98 % of control and the T/C under setting [6] is 106 % of control.
Regarding `COC(=O)/C=N/Nc1ccc(C)cc1`, the T/C is 89 % of control (dose: 25.0 mg/kg/injection, schedule: Q01DX009 (ip), vehicle: other); 86 % of control (dose: 50.0 mg/kg/injection, schedule: Q01DX009 (ip), vehicle: other); 96 % of control (dose: 100.0 mg/kg/injection, schedule: Q01DX009 (ip), vehicle: other); 103 % of control (dose: 200.0 mg/kg/injection, schedule: Q01DX009 (ip), vehicle: other); 108 % of control (dose: 400.0 mg/kg/injection, schedule: Q01DX009 (ip), vehicle: other).
For `CCN=NNc1ccc(C(C)=O)cc1`, the T/C under setting [9] is 95 % of control; the T/C under setting [10] was 109 % of control and 90 % of control; the T/C under setting [11] was 109 % of control and 92 % of control; the T/C (dose: 100.0 mg/kg/injection, schedule: Q01DX009 (ip), vehicle: distilled water + Tween-80) was 104 % of control.
`CC(=O)NCCn1nc(-c2ccc(Cl)cc2)c(-c2ccc(Cl)cc2)c(C(C)=O)c1=O`: the T/C runs as follows: (dose: 6.25 mg/kg/injection, schedule: Q01DX005 (ip), vehicle: saline with Tween-80) 103 % of control; (dose: 12.5 mg/kg/injection, schedule: Q01DX005 (ip), vehicle: saline with Tween-80) 103 % of control.
As to `O=S1(=O)N=C(N2CCCCC2)c2ccccc21`, the T/C reads like this: under setting [4], 99 % of control; under setting [5], 96 % of control; under setting [6], 97 % of control.
For the compound `Cc1ccc(S(=O)(=O)C(Br)CC(=O)c2ccccc2)cc1` (stereo not drawn), the T/C was 100 % of control (dose: 100.0 mg/kg/injection, schedule: Q04DX002 (ip), vehicle: saline); 101 % of control (dose: 200.0 mg/kg/injection, schedule: Q04DX002 (ip), vehicle: saline); 109 % of control (dose: 400.0 mg/kg/injection, schedule: Q04DX002 (ip), vehicle: saline).
In the case of `O=C(NC(=S)Nc1ccc(CCO)cc1)c1cccc(Br)c1`, the T/C by setting is: (dose: 3.75 mg/kg/injection, schedule: Q01DX005 (ip), vehicle: saline with Tween-80) 91 % of control; under setting [7], 90 % of control; under setting [8], 87 % of control; (dose: 240.0 mg/kg/injection, schedule: Q01DX005 (ip), vehicle: saline with Tween-80) 92 % of control.
Take `CCOC(=O)Nc1cc(Cl)c2ncn(C(=O)OCC)c2n1`: the T/C is 96 % of control under setting [1], 90 % of control under setting [2] and 93 % of control under setting [3].
